# Test results taken from patent US20150038545A1, “HYDROXYPHENYL PYRROLE COMPOUNDS CONTAINING AN HYDROXAMIC ACID AS HDAC INHIBITORS AND MEDICINAL APPLICATIONS THEREOF” (UNIVERSIDAD DEL PAÍS VASCO, priority 2011, published 2015).
# Key:
# Human HDAC5 = molecular target: T1, Human HDAC5 (Homo sapiens, UniProt Q9UQL6); assay: In vitro HDAC5 inhibition, fluorogenic peptide assay; type: biochemical; conditions: for IC50: read-out: IC50 (nM) of enzyme activity HDAC5
# T1 construct: Full length with Nterminal GST tag, MW=150 kDa; GST (N); purchased BioMol, Hamburg, Germany; host or cells: Sf9 cells, baculovirus
# T1 sequence (Q9UQL6 1-1123 isoform Q9UQL6-3): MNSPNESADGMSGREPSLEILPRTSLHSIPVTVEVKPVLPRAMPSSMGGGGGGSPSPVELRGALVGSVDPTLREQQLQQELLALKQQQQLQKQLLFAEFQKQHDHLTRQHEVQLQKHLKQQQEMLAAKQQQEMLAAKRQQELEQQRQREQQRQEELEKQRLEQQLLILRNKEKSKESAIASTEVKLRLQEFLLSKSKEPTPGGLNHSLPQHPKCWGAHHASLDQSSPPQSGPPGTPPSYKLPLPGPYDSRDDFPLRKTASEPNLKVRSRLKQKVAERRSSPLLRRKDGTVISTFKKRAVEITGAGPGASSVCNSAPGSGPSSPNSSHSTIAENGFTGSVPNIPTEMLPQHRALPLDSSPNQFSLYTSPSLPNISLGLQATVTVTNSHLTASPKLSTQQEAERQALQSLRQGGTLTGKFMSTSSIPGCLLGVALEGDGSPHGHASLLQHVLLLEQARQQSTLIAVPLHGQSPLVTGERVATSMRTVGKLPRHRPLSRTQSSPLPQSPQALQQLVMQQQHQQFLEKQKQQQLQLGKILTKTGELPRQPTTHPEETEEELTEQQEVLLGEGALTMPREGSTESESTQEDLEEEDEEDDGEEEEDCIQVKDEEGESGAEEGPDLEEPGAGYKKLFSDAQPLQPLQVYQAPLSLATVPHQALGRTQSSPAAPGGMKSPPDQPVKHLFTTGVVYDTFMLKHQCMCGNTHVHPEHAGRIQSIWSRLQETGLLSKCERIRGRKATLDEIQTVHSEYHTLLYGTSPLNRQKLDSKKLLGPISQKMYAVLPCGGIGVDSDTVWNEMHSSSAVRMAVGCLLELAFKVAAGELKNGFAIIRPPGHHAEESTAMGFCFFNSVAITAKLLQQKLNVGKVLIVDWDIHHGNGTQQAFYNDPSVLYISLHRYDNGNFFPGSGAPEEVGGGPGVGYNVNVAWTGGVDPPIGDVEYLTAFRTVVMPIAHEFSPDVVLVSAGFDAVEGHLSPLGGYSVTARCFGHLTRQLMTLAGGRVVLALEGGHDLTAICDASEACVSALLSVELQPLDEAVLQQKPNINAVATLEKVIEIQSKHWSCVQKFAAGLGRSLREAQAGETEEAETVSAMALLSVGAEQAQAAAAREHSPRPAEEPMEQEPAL
# Protocol: All HDAC assays were performed using acetylated AMC-labeled peptide substrate: • Substrate for isoforms HDAC1, 2, 3, 4, 5, 6, 7, 9, 10, 11 and HeLa nuclear extract assays: Acetylated fluorogenic peptide from p53 residues 379-382 (RHKKAc) (BioMol. Cat. # KI-104). • Substrate for HDAC8 assays: Acetylated fluorogenic peptide from p53 residues 379-382 (RHKAcKAc) (BioMol. Cat. # KI-178).
# Enzymes: • HDAC1 assay: 75 nM Human HDAC1 (GenBank Accession No. NM_004964): Full length with C-terminal GST tag, MW=79.9 kDa, expressed by baculovirus expression system in Sf9 cells (BioMol. Cat. # SE-456). • HDAC2 assay: 5 nM Human HDAC2 (GenBank Accession No. Q92769): Full length with C-terminal His tag, MW=60 kDa, expressed by baculovirus expression system in Sf9 cells (BioMol. Cat. # SE-500). • HDAC3 assay: 2.3 nM Human HDAC3/NcoR2 (GenBank Accession No. NM_003883 for HDAC3, GenBank Accession No.NM_006312 for NcoR2): Complex of human HDAC3, full length with C-terminal His tag, MW=49.7 kDa, and human NCOR2, N-terminal GST tag, MW=39 kDa, co-expressed in baculovirus expression system (BioMol. Cat. # SE-507). • HDAC4 assay: 266 nM Human HDAC4 (GenBank Accession No. NM_006037): Amino acids 627-1085 with N-terminal GST tag, MW=75.2 kDa, expressed in baculovirus expression system (BioMol, Hamburg, Germany). • HDAC5 assay: 588 nM Human HDAC5 (GenBank Accession No. NM_001015053): Full length with Nterminal GST tag, MW=150 kDa, expressed by baculovirus expression system in Sf9 cells (BioMol, Hamburg, Germany). • HDAC6 assay: 13 nM Human HDAC6 (GenBank Accession No. BC069243): Full length with N-terminal GST tag, MW=159 kDa, expressed by baculovirus expression system in Sf9 cells (BioMol. Cat. # SE-508). • HDAC7 assay: 962 nM Human HDAC7 (GenBank Accession No. AY302468): Amino acids 518-end with N-terminal GST tag, MW=78 kDa, expressed in baculovirus expression system (BioMol, Hamburg, Germany). • HDAC8 assay: 119 nM Human HDAC8 (GenBank Accession No. NM018486): Full length, MW=42 kDa, expressed in an E. coli expression system (BioMol. […]
# The reactions were carried out in a 96-well microplate for fluorometry in a 50 μl reaction volume. […] The reaction was allowed to develop for 45 minutes at 30° C. with 5% CO2; then the fluorescent signal was measured with an excitation wavelength at 360 nm and an emission wavelength at 460 nm in a microplate-reading fluorometer (GeminiXS; Molecular Devices, Sunnyvale, Calif.). […] IC50 was calculated by fitting the experimental data to a dose-response curve. […]
# LoVo = assay: Cancer cell growth inhibition (CellTiter-Glo), LoVo; type: cell-based, Human; conditions: Homo sapiens, Colorectal Cancer, 72 h treatment
# Protocol: (§1) Cell culture-based assays were used to evaluate the ability of compounds of the invention to inhibit cancer cell growth.
# (§2) Cells were obtained from the American Type Culture Collection (ATCC). Cells were cultured at 37° C. with 5% CO2 in the appropriate growth medium (see table below), and harvested respectively during the logarithmic growth period and counted with hemocytometer. The cell viability was examined by trypan blue exclusion. Cell concentrations were adjusted to 5.56×10^4 cells/ml with respective medium.
# (§3) Stock solutions of test compounds and positive drugs Doxorubicin (Zhejiang, Haizheng, China), Cisplatin (Nanjing Zhiyao, China) and Mitomycin (Zhejiang, Haizheng, China) were prepared in dimethyl sulphoxide (DMSO) or PBS at 20 mM.
# (§4) In order to determine the IC50 for each compound, experiments were carried out in 96-well plates and the cell lines seeded at a density of 5,000 cells/well. […] All treatments were performed in triplicate. 10 μl of drug solution was added to each well and incubated for 72 hours. At the end of the incubation, 100 μl of the CellTiter-Glo Reagent were added to each well and the contents were mixed for 2 munites on an orbital shaker to induce cell lysis. The plate was incubated at room temperature for 10 minutes to stabilize luminiscent signal, and luminiscent was recorded. […] In order to calculate IC50 values, dose-responsive curves were fitted using nonlinear regression model with a sigmoidal dose response.
# SW480 = assay: Cancer cell growth inhibition (CellTiter-Glo), SW480; type: cell-based, Human; conditions: Homo sapiens; Colorectal Cancer, SW480, 72 h treatment
# Protocol: as §1, §2, §3, §4
# MDA-MB-231 = assay: Cancer cell growth inhibition (CellTiter-Glo), MDA-MB-231; type: cell-based; conditions: Homo sapiens; Breast Cancer, MDA-MB-231, 72 h treatment
# Protocol: as §1, §2, §3, §4
Selectivity against HDAC6 (IC50 HDACx/IC50 HDAC6) HDAC5 (Human HDAC5; IC50 HDAC5/IC50 HDAC6),IC50 (Human HDAC5),IC50 (LoVo),IC50 (SW480),melting point,IC50 (MDA-MB-231),SMILES
32.7,655 nM,–,–,–,–,"COc1ccc(-c2cc(-c3ccccc3)[nH]c2C(=O)NCCCCCC(=O)NO)cc1 [Compound A, N-[6-(hydroxyamino)-6-oxohexyl]-3-(4-methoxyphenyl)-5-phenyl-1H-pyrrole-2-carboxamide, reference compound]"
–,–,1.4 µM,1.73 µM,99 to 100 °C,4.33 µM,"O=C(CCCCCNC(=O)c1[nH]c(-c2ccccc2)cc1-c1ccc(O)cc1)NO [Example 1, N-(6-(hydroxyamino)-6-oxohexyl)-3-(4-hydroxyphenyl)-5-phenyl-1H-pyrrole-2-carboxamide]"
–,–,2.69 µM,2.12 µM,224 to 225 °C,9.03 µM,"O=C(CCCCCNC(=O)c1[nH]c(-c2ccc(O)cc2)cc1-c1ccccc1)NO [Example 2, N-(6-(hydroxyamino)-6-oxohexyl)-5-(4-hydroxyphenyl)-3-phenyl-1H-pyrrole-2-carboxamide]"
–,14 nM,1.08 µM,0.48 µM,–,8.02 µM,"O=C(CCCCCNC(=O)c1[nH]c(-c2ccc(O)cc2)cc1-c1ccoc1)NO [Example 5, 3-(3-furyl)-N-(5-(hydroxycarbamoyl)pentyl)-5-(4-hydroxy-phenyl)-1H-pyrrole-2-carboxamide]"
–,43 nM,1.24 µM,1.08 µM,–,7.89 µM,"O=C(CCCCCNC(=O)c1[nH]c(-c2ccc(O)cc2)cc1-c1ccsc1)NO [Example 6, N-(5-(hydroxycarbamoyl)pentyl)-5-(4-hydroxyphenyl)-3-(3-thienyl)-1H-pyrrole-2-carboxamide]"
